In PubChem BioAssay (NCI):
Values joined by “and” are separate entries in the source; they are usually repeats but may differ in a detail not shown here. Equal values may be shown once.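 Assay format: 96-well plates, 48-hour exposure. Here, GI50 denotes the concentration required for 50% inhibition of growth. TGI: total growth inhibition.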

Assays:
Test in all cases: inhibition of tumour cell growth, NCI panel, 48 h
SNB-75 CNS = test system: SNB-75 CNS
MCF7 breast = test system: MCF7 breast
SF-539 CNS = test system: SF-539 CNS
SK-MEL-5 melanoma = test system: SK-MEL-5 melanoma
NCI-H226 lung = test system: NCI-H226 lung
A549 NSCLC = test system: A549 NSCLC
UACC-62 melanoma = test system: UACC-62 melanoma
KM12 colon = test system: KM12 colon
MOLT-4 leukemia = test system: MOLT-4 leukemia
K-562 leukemia = test system: K-562 leukemia

SMILES | TGI (SNB-75 CNS) | TGI (MCF7 breast) | TGI (SF-539 CNS) | TGI (SK-MEL-5 melanoma) | TGI (NCI-H226 lung) | TGI (A549 NSCLC) | TGI (UACC-62 melanoma) | TGI (KM12 colon) | TGI (MOLT-4 leukemia) | TGI (K-562 leukemia) | GI50 (SNB-75 CNS) | GI50 (MCF7 breast) | GI50 (SF-539 CNS) | GI50 (SK-MEL-5 melanoma) | GI50 (NCI-H226 lung) | GI50 (A549 NSCLC) | GI50 (UACC-62 melanoma) | GI50 (KM12 colon) | GI50 (MOLT-4 leukemia) | GI50 (K-562 leukemia)
COCCNc1cncc(C(N)=O)c1 | > 100 µM | > 100 µM | > 100 µM | > 100 µM | > 100 µM | > 100 µM | > 100 µM | > 100 µM | > 100 µM | > 100 µM | – | – | – | – | – | – | – | – | – | –
O=C(/C=C/C12c3ccccc3C(c3ccccc31)C1C(=O)NC(=O)C12)c1ccccc1 (configuration not stated) | 2.55 µM | 7.6 µM | 3.02 µM | 3.1 µM | 6.51 µM | 11.8 µM | 3.82 µM | 11 µM | 11.6 µM | > 100 µM | 1.2 µM | 1.45 µM | 1.63 µM | 1.72 µM | 2.28 µM | 2.65 µM | 1.77 µM | 2.72 µM | 2.17 µM | 1.94 µM
Cc1cccc2c1[nH]c(=O)c1c3ccccc3cn21 | > 100 µM | 12.5 µM | 15.8 µM | 23.9 µM | 27.6 µM | > 100 µM | 28.1 µM | 22.8 µM | 5.56 µM | – | 30.7 µM | – | 3.85 µM | 11.7 µM | 3.25 µM | 4.98 µM | 6.87 µM | 3.38 µM | 1.81 µM | –
C=C1CCC2C3(C)COC(c4ccccc4Cl)OC3CCC2(C)C1/C=C/C1=CCOC1=O (configuration not stated) | > 100 µM | > 100 µM | > 100 µM | 21 µM | > 100 µM | > 100 µM | > 100 µM | > 100 µM | > 100 µM | > 100 µM | > 100 µM | 4.38 µM | 24 µM | 3.78 µM | 14.3 µM | 4.97 µM | 11.2 µM | 6.71 µM | 3.77 µM | 3.61 µM
COc1ccc(S(=O)(=O)N(C(C)=O)c2ccccc2/C=C/c2cc[n+]([O-])cc2)cc1 | > 10 µM | > 10 µM | 2.45 µM | > 10 µM | > 10 µM | > 10 µM | > 10 µM | > 10 µM | > 10 µM | > 3.17 µM | 0.25 µM | 0.428 µM | 0.377 µM | 0.703 µM | 2.48 µM | 0.636 µM | 0.457 µM | 0.335 µM | 1.25 µM | 0.321 µM
O=C(O)c1ccc(SSc2ccc(C(=O)O)cn2)nc1 | > 100 µM | > 100 µM | > 100 µM | > 100 µM | > 100 µM | > 100 µM | > 100 µM | > 100 µM | > 100 µM | > 100 µM | – | – | – | – | – | – | – | – | – | –
COc1cc(CNc2oc(-c3ccccc3)c(-c3ccccc3)c2C#N)cc(CN2CCN(C)CC2)c1O | 2.94 µM | 3.07 µM | 3.16 µM | 3.05 µM | 6.75 µM | 4.16 µM | 3.47 µM | 3.55 µM | 4.24 µM | 4.16 µM | 1.33 µM | 1.46 µM | 1.72 µM | 1.62 µM | 2.48 µM | 1.97 µM | 1.77 µM | 1.9 µM | 1.96 µM | 1.51 µM
CCC1=C(CC2NCCc3ccccc32)CC2c3cc(OC)c(OC)cc3CCN2C1 (configuration not stated) | 13.8 µM and 2.47 µM | 10.6 µM and 2.3 µM | 16.4 µM and 2.85 µM | 13.1 µM and 2.7 µM | 37.4 µM and 4.74 µM | 19.9 µM and 4.88 µM | 27.5 µM and 6.66 µM | 12.2 µM and 4.81 µM | 13.8 µM and 2.2 µM | 7.41 µM and 2.1 µM | 4.09 µM | 2.95 µM | 4.84 µM | 3.39 µM | 4.7 µM | 3.49 µM | 13.9 µM | 3.32 µM | 3.39 µM | 2.26 µM
CC/C(=C/c1ccc(OC)cc1OC)[N+](=O)[O-] | 16.6 µM | 3.92 µM | 4.73 µM | 14 µM | 4.73 µM | 23.4 µM | 3.96 µM | 6.75 µM | 35.6 µM | 61.5 µM | 3.28 µM | 0.852 µM | 2.27 µM | 4.12 µM | 2.28 µM | 8.37 µM | 1.73 µM | 2.41 µM | 3.73 µM | 2.91 µM
CCOC(=O)/C=C/c1cccc(F)c1 | > 100 µM | > 100 µM | > 100 µM | – | > 100 µM | > 100 µM | > 100 µM | > 100 µM | > 100 µM | > 100 µM | – | – | – | – | – | – | – | – | – | –
Nc1cccc2c1C(=O)c1cccc(NC(=O)c3ccccc3)c1C2=O | 3.88 µM | 21.3 µM | 13 µM | 15 µM | > 100 µM | 4.66 µM | 14 µM | > 100 µM | > 100 µM | > 100 µM | 0.28 µM | 0.258 µM | 0.292 µM | 0.355 µM | 1.7 µM | 0.677 µM | 0.221 µM | 0.374 µM | 0.751 µM | 0.133 µM
COc1cc(C(=O)c2cocc2C(=O)c2ccc3c(c2)OCO3)cc(OC)c1OC | 10.4 µM | > 100 µM | 1.45 µM | 25.5 µM | 21.1 µM | > 68 µM | > 47.3 µM | 59.1 µM | > 74.7 µM | > 94.9 µM | – | – | – | – | – | – | – | – | – | –
O=c1[nH]c(=O)n(C2CC(O)C(CO)O2)cc1C(F)(F)F (configuration not stated) | > 100 µM | – | 7.21 µM | > 100 µM | > 100 µM | > 100 µM | > 91.8 µM | > 100 µM | > 100 µM | > 100 µM | > 40.9 µM | 0.038 µM | 0.456 µM | 0.399 µM | 20.7 µM | 3.35 µM | 2.59 µM | > 100 µM | 1.65 µM | –
CC(SCc1ccccc1)C(=O)O (configuration not stated) | > 100 µM | > 100 µM | > 100 µM | > 100 µM | > 100 µM | > 100 µM | > 100 µM | > 100 µM | > 100 µM | > 100 µM | – | – | – | – | – | – | – | – | – | –
C[N+](C)=c1ccc2nc3c(cc(NCCCNc4cc5oc6cc(=[N+](C)C)ccc-6nc5c5ccccc45)c4ccccc43)oc-2c1 | 3.64 µM | 3.23 µM | 3.76 µM | 2.79 µM | 63.7 µM | – | 6.88 µM | 8.81 µM | 25 µM | > 25.5 µM | 1.56 µM | 0.885 µM | 1.73 µM | 1.41 µM | 22.1 µM | – | 2.3 µM | 2.55 µM | 3 µM | 1.57 µM
COC(C)C(O)(C(=O)OCC1=CCN2CCC(O)C12)C(C)(C)O (configuration not stated) | > 100 µM | > 100 µM | > 100 µM | > 100 µM | > 100 µM | > 100 µM | > 100 µM | > 100 µM | > 100 µM | – | – | – | – | – | – | – | – | – | – | –
COc1ccc2nc3cc(Cl)ccc3c(Nc3cc(CN4CCCC4)c(O)c(CN4CCCC4)c3)c2n1 | 2.7 µM | 8.34 µM | 3.88 µM | 2.9 µM | 3.24 µM | 22 µM | 3.56 µM | 10.9 µM | 2.51 µM | – | 1.38 µM | 1 µM | 1.89 µM | 1.56 µM | 1.55 µM | 1.29 µM | 1.74 µM | 1.66 µM | 0.41 µM | –
CC(C)(C)OC(=O)N[C@@H](Cc1ccccc1)C(=O)N(Cc1ccccc1)C1(C(=O)NCc2ccccc2)CCN(Cc2ccccc2)CC1 | > 100 µM | 19.3 µM | – | 3.29 µM | > 100 µM | > 100 µM | 7.88 µM | > 100 µM | 6.33 µM | > 100 µM | 2.97 µM | 2.82 µM | – | 1.73 µM | 3.2 µM | 3.85 µM | 2.54 µM | 4.12 µM | 1.83 µM | 3.39 µM
COC(=O)[C@H](Cc1cn(C)cn1)NC(=O)[C@H](Cc1ccccc1)NC(=O)Nc1cc(C(F)(F)F)cc(C(F)(F)F)c1 | 30 µM | 9.73 µM and 29.4 µM | 33 µM | 30.7 µM | 43.8 µM | 31.6 µM | – | 28.2 µM | 28.9 µM | 20.5 µM | 15.6 µM | 2.58 µM and 5.03 µM | 17.2 µM | 16.2 µM | 19.8 µM | 16.1 µM | – | 13.5 µM | 5.87 µM and 11.4 µM | 7.69 µM and 5.97 µM
C[C@]12C[C@H](O)[C@H]3[C@@H](CCC4=CC(=O)CC[C@@]43C)[C@@H]1CC[C@@H]2c1csc(-c2ccccc2)n1 | > 82.7 µM | > 100 µM | > 100 µM | – | > 100 µM | > 100 µM | > 100 µM | > 100 µM | – | > 100 µM | – | – | – | – | – | – | – | – | – | –
N#Cc1cc(S(=O)(=O)Nc2nc3ccccc3o2)c(SCc2ccccc2)cc1Cl | 59.3 µM | > 100 µM | 33.3 µM | 31.9 µM | 80.8 µM | 55 µM | 52.2 µM | 40.7 µM | – | > 100 µM | 25.5 µM | 39.8 µM | 17.9 µM | 17 µM | 31.6 µM | 22.5 µM | 20.3 µM | 20.3 µM | – | 38.8 µM
CCCCn1c(=O)c(/C=C/C(=O)/C=C/c2cc3ccccc3n(CCCC)c2=O)cc2ccccc21 | 8.12 µM | 1.84 µM | 3.57 µM | 3.28 µM | 6 µM | 3.17 µM | 3.06 µM | 2.2 µM | – | – | 2.8 µM | 0.306 µM | 1.47 µM | 1.77 µM | 2.51 µM | 1.56 µM | 1.61 µM | 0.678 µM | – | –
